Read-outs that look alike come from different tables or passages of the source.
Key:
Pfeiffer cell line = experiment: Anti-proliferative activity, Pfeiffer cell line, 7 day treatment; format: cell-based; details: Homo sapiens, 168 h
Procedure: (§1) “N/A” stands for “not assessed”.
(§2) To assess the effect of PRC2 inhibition on cell growth, cells were seeded in 96-well cell culture plates at a density of 2 000-3 000 cells/well in 200 µL of culture medium, and treated with serially diluted compounds for 7 days at 37° C. in an atmosphere of 5% CO2. Cell growth was evaluated by a […] WST-8 assay (Dojindo Molecular Technologies) using a Tecan Infinite M1000 multimode microplate reader (Tecan, Morrisville, NC). The WST-8 reagent was added to the plate, incubated for 1-4 h, and read at 450 nm. The readings were normalized to the DMSO-treated cells, and the IC50 was calculated by nonlinear regression analysis using GraphPad Prism 6 software

[1] = system: KARPAS422 human B cell lymphoma cell; experiment: Cell proliferation, KARPAS422, 7 day treatment (WST-8); format: cell-based; details: Homo sapiens, KARPAS-422, 168 h
Procedure: as §1
Analysis of Cell Proliferation:
as §2

[2] = anti-proliferative IC50, Pfeiffer cell line, 7 day treatment, read-out: Pfeiffer Cell line
[3] = anti-proliferative IC50, Karpas 422 cell line, 7 day treatment, read-out: Karpas Cell line
[4] = anti-proliferative IC50 class, Pfeiffer cell line, 7 day treatment, read-out: Pfeiffer Cell line
[5] = anti-proliferative IC50 class, Karpas 422 cell line, 7 day treatment, read-out: Karpas Cell line

IC50 (Pfeiffer cell line; [4]) [nM]	IC50 [1, 5] [nM]	Structure (SMILES)	other results
		O=C1c2ncn3c(NCc4c(F)ccc5c4CCO5)ncc(c23)-c2cnc(C(F)(F)F)cc2CN1C1CC1 [Cpd. No. 36, 4-cyclopropyl-12-(((5-fluoro-2,3-dihydrobenzofuran-4-yl)methyl)amino)-7-(trifluoromethyl)-4,5-dihydro-3H-2,4,8,11,12a-pentaazabenzo[4,5]cycloocta[1,2,3-cd]inden-3-one]	IC50 (Pfeiffer cell line; [2]): 1.04 nM; IC50 [1, 3]: 5.66 nM
		Cc1ccc2c(n1)CS(=O)(=O)c1ncn3c(NCc4c(F)ccc5c4CCO5)ncc-2c13 [Cpd. No. 95, 11-(((5-fluoro-2,3-dihydrobenzofuran-4-yl)methyl)amino)-6-methyl-4H-3-thia-2,5,10,11a-tetraazadibenzo[cd,f]azulene 3,3-dioxide]	IC50 (Pfeiffer cell line; [2]): 0.023 nM; IC50 [1, 3]: 0.89 nM
		CS(=O)(=O)c1ncn2c(NCc3c(F)ccc4c3CCO4)ncc(-c3ccccc3)c12 [Cpd. No. 99, N-((5-fluoro-2,3-dihydrobenzofuran-4-yl)methyl)-1-(methylsulfonyl)-8-phenylimidazo[1,5-c]pyrimidin-5-amine]	IC50 (Pfeiffer cell line; Pfeiffer, read-out: Pfeiffer Cell line (nM)): 0.19 nM; IC50 ([1]; read-out: Karpas Cell line (nM)): 0.88 nM
< 10	< 10	Cc1ccc2c(n1)CN(C(C)C)C(=O)c1ncn3c(NCc4c(F)ccc5c4CCO5)ncc-2c13 [E 1, 12-(((5-fluoro-2,3-dihydrobenzofuran-4-yl)methyl)amino)-4-isopropyl-7-methyl-4,5-dihydro-3H-2,4,6,11,12a-pentaazabenzo[4,5]cycloocta[1,2,3-cd]inden-3-one]	
< 10	< 10	Cc1cc2c(cn1)-c1cnc(NCc3c(F)ccc4c3CCO4)n3cnc(c13)C(=O)N(C(C)C)C2 [E 2, 12-(((5-fluoro-2,3-dihydrobenzofuran-4-yl)methyl)amino)-4-isopropyl-7-methyl-4,5-dihydro-3H-2,4,8,11,12a-pentaazabenzo[4,5]cycloocta[1,2,3-cd]inden-3-one]	
< 10	< 10	CC(C)N1Cc2cc(C#N)ccc2-c2cnc(NCc3c(F)ccc4c3CCO4)n3cnc(c23)C1=O [E 4, 12-(((5-fluoro-2,3-dihydrobenzofuran-4-yl)methyl)amino)-4-isopropyl-3-oxo-4,5-dihydro-3H-2,4,11,12a-tetraazabenzo[4,5]cycloocta[1,2,3-cd]indene-7-carbonitrile]	
< 10	< 10	O=C1c2ncn3c(NCc4c(F)ccc5c4CCO5)ncc(c23)-c2cnc(C(F)(F)F)cc2CN1C1CCC1 [E 5, 4-cyclobutyl-12-(((5-fluoro-2,3-dihydrobenzofuran-4-yl)methyl)amino)-7-(trifluoromethyl)-4,5-dihydro-3H-2,4,8,11,12a-pentaazabenzo[4,5]cycloocta[1,2,3-cd]inden-3-one]	
< 10	< 10	Cc1ccc2c(n1)CN(CC(F)F)C(=O)c1ncn3c(NCc4c(F)ccc5c4CCO5)ncc-2c13 [E 6, 4-(2,2-difluoroethyl)-12-(((5-fluoro-2,3-dihydrobenzofuran-4-yl)methyl)amino)-7-methyl-4,5-dihydro-3H-2,4,6,11,12a-pentaazabenzo[4,5]cycloocta[1,2,3-cd]inden-3-one]	
< 10	< 10	O=C1c2ncn3c(NCc4c(F)ccc5c4CCO5)ncc(c23)-c2ccc(C(F)(F)F)nc2CN1CC(F)F [E 8, 4-(2,2-difluoroethyl)-12-(((5-fluoro-2,3-dihydrobenzofuran-4-yl)methyl)amino)-7-(trifluoromethyl)-4,5-dihydro-3H-2,4,6,11,12a-pentaazabenzo[4,5]cycloocta[1,2,3-cd]inden-3-one]	
< 10	< 10	Cc1cc2c(cn1)-c1cnc(NCc3c(F)ccc4c3CCO4)n3cnc(c13)C(=O)N(CC(F)F)C2 [E 9, 4-(2,2-difluoroethyl)-12-(((5-fluoro-2,3-dihydrobenzofuran-4-yl)methyl)amino)-7-methyl-4,5-dihydro-3H-2,4,8,11,12a-pentaazabenzo[4,5]cycloocta[1,2,3-cd]inden-3-one]	
10 to 100	10 to 100	Cc1cnc2n1Cc1cc(C(F)(F)F)ncc1-c1cnc(NCc3c(F)ccc4c3CCO4)n3cnc-2c13 [E 10, N-((5-fluoro-2,3-dihydrobenzofuran-4-yl)methyl)-5-methyl-8-(trifluoromethyl)-6H-2,3,5a,9,12,13a-hexaazabenzo[4,5]cyclopenta[7,8]cycloocta[1,2,3-cd]inden-13-amine]	
< 10	< 10	CC(C)N1Cc2cc(C(F)F)ncc2-c2cnc(NCc3c(F)ccc4c3CCO4)n3cnc(c23)C1=O [E 11, 7-(difluoromethyl)-12-(((5-fluoro-2,3-dihydrobenzofuran-4-yl)methyl)amino)-4-isopropyl-4,5-dihydro-3H-2,4,8,11,12a-pentaazabenzo[4,5]cycloocta[1,2,3-cd]inden-3-one]	
< 10	< 10	CCc1ccc2c(n1)CN(CC(F)(F)F)C(=O)c1ncn3c(NCc4c(F)ccc5c4CCO5)ncc-2c13 [E 12, 7-ethyl-12-(((5-fluoro-2,3-dihydrobenzofuran-4-yl)methyl)amino)-4-(2,2,2-trifluoroethyl)-4,5-dihydro-3H-2,4,6,11,12a-pentaazabenzo[4,5]cycloocta[1,2,3-cd]inden-3-one]	
< 10	< 10	CCc1ccc2c(n1)CN(CC(F)F)C(=O)c1ncn3c(NCc4c(F)ccc5c4CCO5)ncc-2c13 [E 13, 4-(2,2-difluoroethyl)-7-ethyl-12-(((5-fluoro-2,3-dihydrobenzofuran-4-yl)methyl)amino)-4,5-dihydro-3H-2,4,6,11,12a-pentaazabenzo[4,5]cycloocta[1,2,3-cd]inden-3-one]	
< 10	< 10	O=C1c2ncn3c(NCc4c(F)ccc5c4CCO5)ncc(c23)-c2ccc(C3CC3)nc2CN1CC(F)(F)F [E 14, 7-cyclopropyl-12-(((5-fluoro-2,3-dihydrobenzofuran-4-yl)methyl)amino)-4-(2,2,2-trifluoroethyl)-4,5-dihydro-3H-2,4,6,11,12a-pentaazabenzo[4,5]cycloocta[1,2,3-cd]inden-3-one]	
< 10	< 10	CC(C)c1ccc2c(n1)CN(CC(F)(F)F)C(=O)c1ncn3c(NCc4c(F)ccc5c4CCO5)ncc-2c13 [E 15, 12-(((5-fluoro-2,3-dihydrobenzofuran-4-yl)methyl)amino)-7-isopropyl-4-(2,2,2-trifluoroethyl)-4,5-dihydro-3H-2,4,6,11,12a-pentaazabenzo[4,5]cycloocta[1,2,3-cd]inden-3-one]	
< 10	< 10	CCc1ccc2c(n1)CN(CC(C)(F)F)C(=O)c1ncn3c(NCc4c(F)ccc5c4CCO5)ncc-2c13 [E 16, 4-(2,2-difluoropropyl)-7-ethyl-12-(((5-fluoro-2,3-dihydrobenzofuran-4-yl)methyl)amino)-4,5-dihydro-3H-2,4,6,11,12a-pentaazabenzo[4,5]cycloocta[1,2,3-cd]inden-3-one]	
10 to 100	10 to 100	Cc1cnc2n1Cc1ncccc1-c1cnc(NCc3c(F)ccc4c3CCO4)n3cnc-2c13 [E 17, N-((5-fluoro-2,3-dihydrobenzofuran-4-yl)methyl)-5-methyl-6H-2,3,5a,7,12,13a-hexaazabenzo[4,5]cyclopenta[7,8]cycloocta[1,2,3-cd]inden-13-amine]	

From patent publication US12145944B2, “Imidazopyrimidines as EED inhibitors and the use thereof” (THE REGENTS OF THE UNIVERSITY OF MICHIGAN, priority 2019, dated 2024)
